Values joined by “and” are separate entries in the source; they are usually repeats but may differ in a detail not shown here. Equal entries are not always repeated. Where two headings read alike, the source gives them in different places.
Legend:
[1] = system: colon adenocarcinoma cells; settings: exposure to 17-AAG; cited from earlier work
[2] = weekly dosing schedule; cited from earlier work
CDK4 = settings: at 24 hours; cited from earlier work
[3] = Plasma pharmacokinetics of 17-AAG and 17-AG in the open-label dose escalating trial in MM patients; settings: for Cmax: iv
Description: The total number of PK samples collected was approximately 110 mL of whole blood (7-8 tablespoons). If a patient experienced a potentially drug-related SAE, additional PK samples were collected. Blood was drawn from the contralateral arm to the infusion site using an indwelling catheter to avoid multiple needle sticks. […] The blood tube was inverted several times, and the tube placed in wet ice immediately pending separation of the plasma. If a catheter was used for blood collection, the fluid in the catheter was completely withdrawn prior to each sample collection and discarded. Plasma samples were kept on wet ice during collection and centrifugation. Plasma samples were split into two cryovials prior to freezing at −70° C.
The PK analysis was performed as follows. […] PK parameters were calculated on plasma concentration time data by non-compartmental analysis using Kinetica version 4.3 software (Innaphase, Champs sur Marne, France). AUC was calculated by the mixed log-linear rule: the linear rule was applied to the range where concentration was ascending and the log-linear rule was applied to the range where the concentration was descending. AUClast is the area from t=0 to tlast, the last sampling time. AUCextra is the extrapolated area from AUClast to infinity and AUCtotal=AUClast+AUCextra and is also named AUC0-∞ area under the concentration-time curve from time zero to infinity. The terminal rate constant λz was calculated on at least three points on the elimination curve with values greater than the lower limit of quantitation. […] Table 5 lists the areas, Cmax, and half-life for the metabolite 17-AG (mean±one standard deviation). […] There was no dose dependency for half-life, clearance or distributive volumes for these dose administrations.

[4] = system: lung cancer cells with wild-type Rb; settings: exposure to 17-AAG; cited from earlier work
[5] = patients treated at 56 mg/m^2 17-AAG; cited from earlier work

In the case of `C=CCNC1=C2C[C@@H](C)C[C@H](OC)[C@H](O)[C@@H](C)/C=C(\C)[C@H](OC(N)=O)[C@@H](OC)/C=C\C=C(/C)C(=O)NC(=CC1=O)C2=O` [17-AAG, 17-Allylamino-17-demethoxygeldanamycin], the “effect on client proteins” value [1] is given as “depletion of Raf-1, c-Akt, and Erk1/2”, the Vss [2] is given as 130 ± 50 L and the t1/2 [2] is given as 2.98 ± 1.0 h. For the same compound, the “patients with depletion of CDK4 in tumor biopsies” value (CDK4) was 8 out of 9, the “clearance CL for 17-AAG, individual patients” value ([3]; 220 mg/m^2, the two patients with metabolite in trough levels on Day 11) was 16.8 L/h/m^2 and 17.3 L/h/m^2 and the “clearance CL for 17-AAG, average for the cohort” value ([3]; 220 mg/m^2 cohort) was 25.3±9.6 L/h/m^2. The AUCtotal ([3]; 17-AAG 150 mg/m^2, mean ± SD) was 5,592 ± 757 ng/mL * h, the “Terminal T1/2” value ([3]; 17-AAG 150 mg/m^2, mean ± SD) was 2.19 ± 0.58 h and the Vss ([3]; 17-AAG 150 mg/m^2, mean ± SD) was 170.9 ± 41.7 L. For the same compound, the clearance ([3]; 17-AAG 150 mg/m^2, mean ± SD) was 915.3 ± 113 mL/min, the AUCtotal ([3]; 17-AAG 220 mg/m^2, mean ± SD) was 9,460 ± 3,788 ng/mL * h and the Vss ([3]; 17-AAG 220 mg/m^2, mean ± SD) was 139.1 ± 45.7 L. For the same compound, the Vz ([3]; 17-AAG 220 mg/m^2, mean ± SD) was 171.0 ± 67.1 L, the AUCtotal ([3]; 17-AAG 275 mg/m^2, mean ± SD) was 13,803 ± 1,540 ng/mL * h and the Vz ([3]; 17-AAG 275 mg/m^2, mean ± SD) was 159.6 ± 54.4 L. For the same compound, the AUCtotal ([3]; 17-AAG 340 mg/m^2, mean ± SD) was 18,997 ± 4,195 ng/mL * h, the Vz ([3]; 17-AAG 340 mg/m^2, mean ± SD) was 174.0 ± 71.2 L and the “change of AUCtotal between Day 1 and Day 11” value ([3]; 17 patients, first vs fourth infusion) was “no increase in AUCtotal between Day 1 and Day 11”. For the same compound, the “dose proportionality of Cmax” value ([3]; 150-340 mg/m^2 17-AAG) was “increased in an approximately dose proportional manner”, the half-life ([3]; human, in vivo) was 2.19 to 3.68 h and the AUC(0-t) ([3]; human, in vivo, 150 mg/m2) was 5300 ng·h/mL. The Vd ([3]; human, in vivo, 150 mg/m2, Vz, 17-AAG 150 mg/m^2, mean ± SD) was 170 ± 30.3 L, the AUC(0-t) ([3]; human, in vivo, 220 mg/m2) was 9160 ng·h/mL and the half-life ([3]; human, in vivo, 220 mg/m2) was 2.68 ± 0.99 h. It also gave a clearance ([3]; human, in vivo, 220 mg/m2, Clearance, 17-AAG 220 mg/m^2, mean ± SD) of 780 mL/min, an AUC(0-t) ([3]; human, in vivo, 275 mg/m2) of 13400 ng·h/mL and a half-life ([3]; human, in vivo, 275 mg/m2) of 2.96 ± 1.34 h. The clearance ([3]; human, in vivo, 275 mg/m2, Clearance, 17-AAG 275 mg/m^2, mean ± SD) was 661 mL/min, the Vd ([3]; human, in vivo, 275 mg/m2, Vss, 17-AAG 275 mg/m^2, mean ± SD) was 123 ± 23.4 L and the AUC(0-t) ([3]; human, in vivo, 340 mg/m2) was 18700 ng·h/mL. It also gave a half-life ([3]; human, in vivo, 340 mg/m2) of 3.3 ± 0.83 h, a clearance ([3]; human, in vivo, 340 mg/m2, Clearance, 17-AAG 340 mg/m^2, mean ± SD) of 595 mL/min and a Vd ([3]; human, in vivo, 340 mg/m2, Vss, 17-AAG 340 mg/m^2, mean ± SD) of 101 ± 27.7 L. For the same compound, the clearance ([3]; human, in vivo, CL, present study, overall) was 792 mL/min, the clearance ([3]; human, in vivo, Total systemic clearance, range of cohort means, across dose administrations) was 636 to 915 mL/min and the Vd ([3]; human, in vivo, distributive volume (Vss), range of cohort means, across dose administrations) was 123 to 171 L. For the same compound, the Vd ([3]; human, in vivo, distributive volume (Vz), range of cohort means, across dose administrations) was 160 to 204 L, the Cmax ([3]; human, in vivo, 150 mg/m2) was 2400 ng/mL and the Cmax ([3]; human, in vivo, 220 mg/m2) was 4670 ng/mL. The Cmax ([3]; human, in vivo, 275 mg/m2) was 6820 ng/mL, the Cmax ([3]; human, in vivo, 340 mg/m2) was 9360 ng/mL and the Vss ([3]; present study, overall) was 144.45 ± 43.51 L. The “effect on client proteins” value [4] was “degradation of cdk4, cdk6, and cyclin E”, the Vz [5] was 93 L/m^2 and the clearance [5] was 19.9 L/h/m^2.
